Experimental data taken from patent publication US6406679B1, “Use of HL-60-related lectins in drug delivery and detection of lectin-expressing cells” (Incyte Pharmaceuticals, Inc., priority 1992, dated 2002).
Several values for one entry are separate records, joined by “and”; a condition that tells them apart may be missing. Equal values may be shown once.

Columns and labels:
[1] = tested on: Rat lymph node lymphocytes; test: Agglutination of cells treated with lectin; format: cell-based; conditions: 250 μg/ml lectin, on ice 30 min
Procedure: (§1) To analyze the mechanism of action of the inventive lectins as immunomodulators, a test was devised to discover whether these lectins bind lymphocytes and/or T-cells to endothelial cells. Thin sections of tissue containing inflamed rat brain vascular endothelium were prepared. Rat lymph node lymphocytes and human T-cells of the Jurkat line (10^7/ml in Dulbecco's modified Eagle medium (MEM) with 5% fetal bovine serum (FBS)) were treated with 250 μg/ml of the lectin of Example 1, with the lectin plus 1 mM beta-lactose, or with no additions and subsequently were placed on ice for 30 min. […] These effects were not observed when beta-lactose was added or when there were no additions.

[2] = tested on: human T-cells of the Jurkat line; test: Agglutination of cells treated with lectin; format: cell-based; conditions: 250 μg/ml lectin, on ice 30 min
Procedure: as §1

[3] = tested on: T-cell lines MOLT4 and ARR on thymic epithelial cells; test: Binding of cultured T-cells to thymic epithelial cells (DPM); format: cell-based, human; conditions: lectin-treated T-cells with terminal galactose residues, FIG. 4
Procedure: The effects of the lectin on the binding of cultured T-cells to thymic epithelial cells were further tested according to the protocol of Singer et al., (Proc. Natl. Acad. Sci. (1986) 83:6588-92). T-cell lines MOLT4 and ARR (a T-cell line with sialic-acid-terminating glycoproteins) were incubated with tritiated thymidine. Next, the cells were treated with neuraminidase (which cleaves terminal sialic acids from the glycoproteins on ARR cells and leaves terminal galactose), galactosidase, endolactosaminidase or no enzyme. After this step, they cells were incubated with and without lectin. All the treatment and control groups of T-cells were layered over thymic epithelial cells, incubated and washed as described in Singer et al. Lastly, the amount of bound T-cells was quantitated by […] per minute (DPM).

[4] = Antibodies specific for the lectin in sera of treated rats (ELISA); format: in vivo, rat
SJL/J mice = test: EAE relapse murine model; format: in vivo, mouse; conditions: 50 μg i.v. days 13 and 15, 100 μg i.v. daily days 18-24, FIG. 13
From the text: In mice, symptoms of EAE can be made to occur in cyclical fashion by boosting the animals with antigen following each cycle, and each cycle becomes more severe until death ultimately occurs. This is a useful model in which to determine therapeutic efficacy, since it closely mimics both the chronic disease relapses and the acute demyelination associated with multiple sclerosis. In this experiment, 20 female SJL/J mice were immunized with lyophilized spinal cord extract dissolved in PBS plus CFA on days 0, 7 and 21. Ten mice were injected with recombinant lectin, and ten mice were given buffer only. The lectin-treated mice received 50 μg lectin on days 13 and 15 intravenously in the tail vein, and an additional 100 μg i.v. daily from day 18 through day 24. Mice were followed until death or sacrifice at day 42.
The results in FIG. 13 are mean clinical scores for control and lectin-treated mice.

Lewis rats [5] = test: Rat heart transplantation, lectin combined with cyclosporin; format: in vivo; conditions: Group A: Cyclosporin 0, Lectin 2.5 mg/kg/day
From the text: The heart transplant model of paragraph A was used. Five groups of 5 Lewis rats received hearts from Brown Norway rats and were given the following drugs by group, as shown in Table 8:
Cyclosporin i.p. was started the day of the graft and continued daily. Recombinant lectin was started two days prior to transplant and continued daily.

Lewis rats [6] = test: Skin allografts (Brown Norway skin on Lewis rats); format: in vivo, rat; parameters: key to Hair Growth / Hair Growth, Mean + SD column: whether or not (+ or −) hair growth was restored in the tissue; whether or not (+ or −) hair growth was restored in the tissue
Procedure: The work in this report was done in the laboratory of Drs. Arthur Vandenbark and Halina Offner at the Oregon VA Medical Center. Brown Norway rat skin was transplanted onto the back of Lewis rats. Identical grafts were done on both sides of each animal's back and the results of each side (separated by commas) were shown for each parameter in Tables 9 and 10. […] A 250 μg/animal dose of lectin was administered i.v. daily on days 2-17.
The protocols for the studies reported in Tables 9 and 10 differed only in that the lectin was delivered for four additional days up to day 21 (see Table 10).

lymph node cells = test: In vivo effect of lectin on phenotypes of lymphocytes (antibody staining); parameters: species or system rat; conditions: for % positive / F^L / % CHANGE IN POSITIVES: Lymph Node Cells
Spleen Cells = test: as above; parameters: species or system rat; conditions: for % positive / F^L / % CHANGE IN POSITIVES: Spleen Cells
[7] = Day 2 to Day 17, individual animals, first-listed graft side, listed as rIML-1
[8] = Day 2 to Day 17, individual animals, second-listed graft side, listed as rIML-1
[9] = Day 2 to Day 21, individual animals, first-listed graft side, listed as rIML-1
[10] = Day 2 to Day 21, individual animals, second-listed graft side, listed as rIML-1
[11] = antibody 0X6, lectin vs control
[12] = antibody 0X8 (suppressor T-cells)
[13] = antibody 0X8, lectin vs control
[14] = antibody 0X12, lectin vs control
[15] = antibody IgG, lectin-treated rats
[16] = antibody W3/13, lectin vs control
[17] = antibody W3/25 (helper T-cells)
[18] = antibody W3/25, lectin vs control

## Lectin: Soluble 14 kD β-galactoside-binding HL-60/placenta lectin of FIG. 1 (SEQ ID NO:2), prepared recombinantly in E. coli
[1]
  Clumping of rat lymphocytes: moderately clumped
[2]
  Agglutination of T-cells: severely agglutinated
[3]
  Binding of T-cells to thymic epithelial cells: appreciably bound
[4]
  antibodies specific for the lectin in sera of treated rats: did not contain
SJL/J mice
  mean clinical scores, first cycle: improved clinical scores
  survival and clinical scores, second cycle: improved survival and clinical scores
Lewis rats [5]
  Survivors on Day 16: 0/5
Lewis rats [6]; 250 μg/animal i.v. daily days 2-17, versus control
  delay of rejection of the grafts: 7 days
Lewis rats [6]; Day 2 to Day 17
  Rejection (on day), Mean ± SD: 17 ± 2 days
Lewis rats [6]; [7]
  Degeneration (on day): 15 day and 11, day and 14 day
  Hair Growth: +, + (3×) and − and +
  Rejection (on day): 16 day and 13, day and 16, day and 18, day (2×)
Lewis rats [6]; [8]
  Degeneration (on day): 16 day (2×) and 13 day
  Hair Growth: +, + (3×) and +
  Rejection (on day): 17 day and 15 day and 16 day and 18 day (2×)
Lewis rats [6]; Day 2 to Day 17, individual animals, listed as rIML-1
  Histology: 0
Lewis rats [6]; Day 2 to Day 21
  Degeneration (on day), Mean + SD: 17 ± 2 days
  Hair Growth, Mean + SD column: +
  Rejection (on day), Mean + SD: 19 ± 2 days
Lewis rats [6]; [9]
  Degeneration (on day): 15 day (3×) and 18, 18 day and 17 day and 18 day
  Hair Growth: +, + (5×) and −
  Rejection (on day): 18 day (2×) and 19, 19 day and 21, 21 day and 17 day and 19 day
Lewis rats [6]; [10]
  Degeneration (on day): 19 day (3×) and 18 day and 18, 18 day and 11 day
  Hair Growth: +, + (5×) and +
  Rejection (on day): 23 day and 19, 19 day and 21, 21 day and 13 day and 20 day and 22 day
Lymph node cells; antibody 0X6
  % positive: 10.0%
  F^L: 1208
Lymph node cells; [11]
  % CHANGE IN POSITIVES: 0%
Lymph node cells; antibody 0X8
  % positive: 30.3%
Lymph node cells; [12]
  F^L: 472
Lymph node cells; [13]
  % CHANGE IN POSITIVES: +28%
Lymph node cells; antibody 0X12
  % positive: 9.9%
  F^L: 316
Lymph node cells; [14]
  % CHANGE IN POSITIVES: 0%
Lymph node cells; [15]
  % positive: 16.4%
  F^L: 129
Lymph node cells; antibody W3/13
  % positive: 99.5%
Lymph node cells; antibody W3/13 (total T-cells)
  F^L: 442
Lymph node cells; [16]
  % CHANGE IN POSITIVES: 0%
Lymph node cells; antibody W3/25
  % positive: 76.5%
Lymph node cells; [17]
  F^L: 230
Lymph node cells; [18]
  % CHANGE IN POSITIVES: −0%
Lymph node cells; lectin-treated animals
  increase in the number of rat lymph node suppressor T-cells (0X8 reactive): 28%
Spleen Cells; antibody 0X6
  % positive: 15.6%
  F^L: 375
Spleen Cells; [11]
  % CHANGE IN POSITIVES: 0%
Spleen Cells; antibody 0X8
  % positive: 41.2%
Spleen Cells; [12]
  F^L: 323
Spleen Cells; [13]
  % CHANGE IN POSITIVES: +32%
Spleen Cells; antibody 0X12
  % positive: 15.4%
  F^L: 363
Spleen Cells; [14]
  % CHANGE IN POSITIVES: 0%
Spleen Cells; [15]
  % positive: 24.3%
  F^L: 129
Spleen Cells; antibody W3/13
  % positive: 85.9%
Spleen Cells; antibody W3/13 (total T-cells)
  F^L: 311
Spleen Cells; [16]
  % CHANGE IN POSITIVES: −19%
Spleen Cells; antibody W3/25
  % positive: 67.2%
Spleen Cells; [17]
  F^L: 161
Spleen Cells; [18]
  % CHANGE IN POSITIVES: −24%
Spleen Cells; lectin-treated animals
  decrease in the numbers of spleen helper T-cells (w3/25 antibody reactive): 19%
  decrease in the numbers of spleen total T-cells (w3/13 antibody reactive): 24%
  increase in the number of spleen suppressor T-cells: 32%
